Experimental data from PubChem BioAssay (NCI).
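Results reflect a 48-hour exposure of cells in 96-well plates to compound at five concentrations. Definition used: TGI = concentration required for complete inhibition of growth.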

How the values were obtained:
Test in all cases: growth of human tumour cells (NCI), 48 h
ACHN renal = tested on: ACHN renal
LOX IMVI melanoma = tested on: LOX IMVI melanoma
RXF 393 renal = tested on: RXF 393 renal
RPMI-8226 leukemia = tested on: RPMI-8226 leukemia
DU-145 prostate = tested on: DU-145 prostate
HS 578T breast = tested on: HS 578T breast
SNB-19 CNS = tested on: SNB-19 CNS
SN12C renal = tested on: SN12C renal
COLO 205 colon = tested on: COLO 205 colon
OVCAR-4 ovarian = tested on: OVCAR-4 ovarian
OVCAR-8 ovarian = tested on: OVCAR-8 ovarian
NCI-H460 lung = tested on: NCI-H460 lung
NCI/ADR-RES ovarian = tested on: NCI/ADR-RES ovarian
SK-MEL-28 melanoma = tested on: SK-MEL-28 melanoma
SW-620 colon = tested on: SW-620 colon
BT-549 breast = tested on: BT-549 breast
OVCAR-3 ovarian = tested on: OVCAR-3 ovarian
HCT-15 colon = tested on: HCT-15 colon
NCI-H522 lung = tested on: NCI-H522 lung
A549 NSCLC = tested on: A549 NSCLC

SMILES	TGI (ACHN renal)	TGI (LOX IMVI melanoma)	TGI (RXF 393 renal)	TGI (RPMI-8226 leukemia)	TGI (DU-145 prostate)	TGI (HS 578T breast)	TGI (SNB-19 CNS)	TGI (SN12C renal)	TGI (COLO 205 colon)	TGI (OVCAR-4 ovarian)	TGI (OVCAR-8 ovarian)	TGI (NCI-H460 lung)	TGI (NCI/ADR-RES ovarian)	TGI (SK-MEL-28 melanoma)	TGI (SW-620 colon)	TGI (BT-549 breast)	TGI (OVCAR-3 ovarian)	TGI (HCT-15 colon)	TGI (NCI-H522 lung)	TGI (A549 NSCLC)
CCOC(=O)c1c(-c2ccc(Br)cc2)ccn1C	> 10 µM	> 10 µM	> 10 µM	> 10 µM	> 10 µM	> 10 µM	> 10 µM	> 10 µM	> 10 µM	> 10 µM	> 10 µM	> 10 µM	> 10 µM	> 10 µM	> 10 µM	> 10 µM	> 10 µM	> 10 µM	> 10 µM	> 10 µM
Oc1cccc2cc(Br)cnc12	> 69.2 µM	> 39.7 µM	88.2 µM	> 31.4 µM	> 100 µM	> 92.6 µM	> 100 µM	> 100 µM	97.5 µM	> 30.4 µM	> 100 µM	> 70.8 µM	20.6 µM	> 100 µM	> 100 µM	> 100 µM	> 26.3 µM	> 100 µM	9.18 µM	> 100 µM
CCN(CC)/[N+]([O-])=N/OCOC(C)=O	> 100 µM	> 100 µM	> 100 µM	> 100 µM	> 100 µM	> 100 µM	> 100 µM	> 100 µM	> 100 µM	> 100 µM	> 100 µM	> 100 µM	> 100 µM	> 100 µM	> 100 µM	> 100 µM	> 100 µM	> 100 µM	> 100 µM	> 100 µM
O=c1oc2ccc(Cl)cc2cc1-c1cn2ccccc2n1	8.54 µM	> 100 µM	> 44.7 µM	> 100 µM	> 100 µM	> 100 µM	> 21 µM	36.8 µM	> 100 µM	29.8 µM	> 100 µM	> 62.5 µM	> 77.4 µM	> 100 µM	> 100 µM	> 100 µM	> 100 µM	> 100 µM	> 100 µM	> 89.3 µM
CC(C)(C)OC(=O)c1ccc(NCC2=CC(=O)C=CC2=O)cc1	22.2 µM	22.6 µM	23.6 µM	> 27.1 µM	31.6 µM	46 µM	31.4 µM	23.8 µM	7.21 µM	22 µM	26.9 µM	> 59.5 µM	28.2 µM	29.2 µM	22.6 µM	29.5 µM	16.1 µM	20.5 µM	3.1 µM	40.1 µM
CC(C)(C)OC(=O)C1=C2C=C(O)C=CC2(C)N(Cc2ccccc2)C1=N (stereo not given)	5.56 µM	8.44 µM	6.96 µM	> 27.1 µM	12.8 µM	> 91.6 µM	33.8 µM	25.5 µM	6.24 µM	19.1 µM	10.6 µM	34.7 µM	> 82.8 µM	24.8 µM	5.69 µM	4.58 µM	13.8 µM	14.9 µM	4 µM	28.1 µM
O=C(O)C1(Cc2ccc3c(c2)CCC3)Cc2ccccc2C1	> 100 µM	> 100 µM	> 100 µM	> 100 µM	> 100 µM	> 100 µM	> 100 µM	> 100 µM	> 100 µM	> 100 µM	> 100 µM	> 100 µM	> 100 µM	> 100 µM	> 100 µM	> 100 µM	> 100 µM	> 100 µM	> 100 µM	> 100 µM
C=C(C)C(O)C(O)C[C@@H](C)C1CC[C@]23C[C@]12CCC1[C@@]2(C)CCC(OC(C)=O)C(C)(C)C2CC(OC2OC(CO)C(O)C(O)C2O)[C@]13C (stereo not given in full)	> 100 µM	32.3 µM	29.3 µM	46.5 µM	43.3 µM	39.6 µM	45.1 µM	30.9 µM	31.5 µM	41.8 µM	37.1 µM	34.5 µM	> 100 µM	37.1 µM	30.8 µM	27.6 µM	32.3 µM	> 100 µM	30.7 µM	> 100 µM
O=C(CCCl)NNC1=NCCCCN1	> 100 µM	> 100 µM	> 100 µM	> 100 µM	> 100 µM	> 100 µM	> 100 µM	> 100 µM	> 100 µM	> 100 µM	> 100 µM	> 100 µM	> 100 µM	> 100 µM	> 100 µM	> 100 µM	> 100 µM	> 100 µM	> 100 µM	> 100 µM
Cc1nn2c(C(=O)N/N=C/c3ccc([N+](=O)[O-])cc3)c(C)nc2s1	> 100 µM	> 100 µM	> 100 µM	–	> 100 µM	> 100 µM	> 100 µM	> 100 µM	> 100 µM	> 100 µM	> 100 µM	> 100 µM	> 100 µM	> 100 µM	> 100 µM	> 100 µM	> 100 µM	> 100 µM	> 100 µM	> 100 µM
COc1ccc2c(c1)CCCN2S(=O)(=O)c1ccccc1[N+](=O)[O-]	> 100 µM	> 88.6 µM	55.9 µM	71.3 µM	> 100 µM	> 97.1 µM	> 100 µM	> 100 µM	> 79.8 µM	> 100 µM	> 89.4 µM	> 87.9 µM	> 85.6 µM	> 100 µM	> 100 µM	66.7 µM	> 92.3 µM	> 97.4 µM	66.5 µM	> 100 µM
CN(C)CC1CCCCCCCCCC(CN(C)C)C1=O (stereo not given)	> 46.3 µM	> 37.2 µM	> 42.4 µM	> 100 µM	31.1 µM	24.1 µM	> 55.6 µM	> 53.5 µM	> 100 µM	> 41.2 µM	> 54.8 µM	> 57 µM	52.1 µM	> 54.4 µM	> 45.5 µM	18.7 µM	> 40.1 µM	> 61.2 µM	10.5 µM	> 51.5 µM
COC1=CC(=O)c2c(c(COP(=O)(N(C)CCBr)N(C)CCBr)cn2C)C1=O	0.0728 µM	3.56 µM	0.289 µM	0.441 µM	1.06 µM	2.93 µM	3.76 µM	0.371 µM	0.209 µM	3 µM	0.314 µM	0.983 µM	1.71 µM	0.33 µM	0.317 µM	0.616 µM	0.877 µM	0.193 µM	0.374 µM	0.659 µM
CCCCCCOc1ccc(C(=O)N(C)O)cc1	30.3 µM	> 100 µM	97.6 µM	46.6 µM	66 µM	> 100 µM	> 100 µM	> 93.9 µM	56 µM	> 100 µM	61 µM	30 µM	57.1 µM	> 100 µM	> 100 µM	> 100 µM	> 100 µM	> 82.9 µM	90.6 µM	56.6 µM
O=C1c2ccccc2CC12Cc1ccccc1C2	> 100 µM	> 100 µM	70.1 µM	> 100 µM	> 100 µM	> 100 µM	> 100 µM	> 100 µM	> 100 µM	> 100 µM	> 100 µM	> 100 µM	89.1 µM	> 100 µM	> 100 µM	> 100 µM	> 100 µM	> 100 µM	> 100 µM	> 100 µM
O=C(NCCN1CCCCC1)c1ccc(I)cc1	> 100 µM	> 100 µM	> 100 µM	> 100 µM	> 100 µM	> 100 µM	> 100 µM	> 100 µM	> 100 µM	> 100 µM	> 100 µM	> 100 µM	> 100 µM	> 100 µM	> 100 µM	> 100 µM	> 100 µM	> 100 µM	> 100 µM	> 100 µM
Oc1ccccc1C1=NOC(c2ccc(C(F)(F)F)cc2)C1 (stereo not given)	> 50 µM	> 50 µM	> 50 µM	> 50 µM	> 50 µM	> 50 µM	> 50 µM	> 50 µM	> 50 µM	> 50 µM	> 50 µM	> 50 µM	> 50 µM	> 50 µM	> 50 µM	> 50 µM	> 50 µM	> 50 µM	> 50 µM	> 50 µM
O=c1c2cc(I)ccc2nc(SCc2n[nH]c(=S)o2)n1Cc1ccccc1	28.6 µM	29.1 µM	10.9 µM	> 100 µM	31.1 µM	44.3 µM	55.5 µM	27.6 µM	22.8 µM	44.4 µM	40.4 µM	39.5 µM	54.2 µM	32.3 µM	39.6 µM	37.1 µM	31.1 µM	34 µM	27.8 µM	48.4 µM
CCOC(=O)/C=C/[C@H](O)[C@@H](O)/C=C/C(=O)OCC	60 µM	74.2 µM	79.4 µM	44.6 µM	> 100 µM	> 100 µM	58.2 µM	85.2 µM	> 100 µM	> 100 µM	44.8 µM	43 µM	> 100 µM	44.3 µM	40.6 µM	> 100 µM	64.7 µM	59.7 µM	39.2 µM	> 100 µM
COC(=O)C1=C(C(=O)OC)SC(=C2S[C@@H]3[C@@H]4C[C@H]([C@@H]3S2)[C@H]2C(=O)OC(=O)[C@@H]42)S1	> 100 µM	> 100 µM	> 100 µM	> 100 µM	> 100 µM	> 100 µM	> 100 µM	> 100 µM	> 100 µM	> 100 µM	> 100 µM	–	> 100 µM	> 100 µM	> 100 µM	> 100 µM	> 100 µM	> 100 µM	> 100 µM	> 100 µM
CN1C=Cc2nccc3cc4c(c1c23)OCO4	19.3 µM	> 100 µM	7.61 µM	30.7 µM	> 25.1 µM	> 77.3 µM	41 µM	30.2 µM	> 42.8 µM	47.5 µM	> 100 µM	> 33.1 µM	52.6 µM	39.2 µM	> 100 µM	7.36 µM	> 72.4 µM	> 66.3 µM	8.2 µM	> 55.4 µM
N#Cc1c(O)c(N=Nc2ccc(Cl)cc2)c(=O)n2c1[nH]c1ccccc12	> 100 µM	> 100 µM	> 100 µM	85.5 µM	> 100 µM	> 100 µM	> 100 µM	> 100 µM	> 100 µM	> 100 µM	> 100 µM	> 100 µM	> 100 µM	> 100 µM	> 100 µM	> 100 µM	80.8 µM	> 100 µM	> 100 µM	> 100 µM
Cc1nc2ccc(NC3OC(CO)C(O)C(O)C3O)cc2c(=O)n1-c1ccccc1 (stereo not given)	> 100 µM	> 100 µM	> 100 µM	> 100 µM	> 100 µM	> 100 µM	> 100 µM	> 100 µM	> 100 µM	> 100 µM	> 100 µM	> 100 µM	> 100 µM	> 100 µM	> 100 µM	> 100 µM	> 100 µM	> 100 µM	> 100 µM	–
CN(C)C=NCCN1CCOCC1	> 100 µM	> 100 µM	> 100 µM	> 100 µM	> 100 µM	> 100 µM	> 100 µM	> 100 µM	> 100 µM	> 100 µM	> 100 µM	–	> 100 µM	> 100 µM	–	> 100 µM	> 100 µM	> 100 µM	> 100 µM	> 100 µM
